Measured values: ChEMBL document CHEMBL1201862, “PubChem BioAssay data set” (2004)
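Dose response: 5 concentrations. Exposure: 48 h. Format: 96-well plates. Endpoint: linear interpolation; highest concentration if not reached. Here, GI50 denotes the concentration required for 50% inhibition of growth.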 Active and inactive are the calls of the source. Rule as the data show it: active = GI50 up to about 1.1 µM and inactive = higher.

Key:
Assay in all cases: inhibition of tumour cell growth, NCI panel, 48 h
SK-MEL-2 = test system: SK-MEL-2
OVCAR-5 = test system: OVCAR-5
U-251 = test system: U-251
RXF 393 = test system: RXF 393
IGROV-1 = test system: IGROV-1
UO-31 = test system: UO-31
OVCAR-4 = test system: OVCAR-4
SK-MEL-5 = test system: SK-MEL-5
MOLT-4 = test system: MOLT-4
SNB-75 = test system: SNB-75
HCT-116 = test system: HCT-116
SR = test system: SR
UACC-257 = test system: UACC-257
HOP-62 = test system: HOP-62
TK-10 = test system: TK-10
HT-29 = test system: HT-29
SK-MEL-28 = test system: SK-MEL-28
RPMI-8226 = test system: RPMI-8226
Hs-578T = test system: Hs-578T
MDA-MB-435 = test system: MDA-MB-435

SMILES	GI50 (SK-MEL-2)	GI50 (OVCAR-5)	GI50 (U-251)	GI50 (RXF 393)	GI50 (IGROV-1)	GI50 (UO-31)	GI50 (OVCAR-4)	GI50 (SK-MEL-5)	GI50 (MOLT-4)	GI50 (SNB-75)	GI50 (HCT-116)	GI50 (SR)	GI50 (UACC-257)	GI50 (HOP-62)	GI50 (TK-10)	GI50 (HT-29)	GI50 (SK-MEL-28)	GI50 (RPMI-8226)	GI50 (Hs-578T)	GI50 (MDA-MB-435)
CCCCCCCCCCCc1cc(=O)c2c(O)cccc2o1	24.1 µM (inactive)	88.7 µM (inactive)	95.7 µM (inactive)	70.6 µM (inactive)	> 100 µM (inactive)	> 100 µM (inactive)	> 100 µM (inactive)	44.8 µM (inactive)	30.3 µM (inactive)	> 100 µM (inactive)	41.9 µM (inactive)	26.1 µM (inactive)	36 µM (inactive)	> 100 µM (inactive)	> 100 µM (inactive)	53.7 µM (inactive)	94.6 µM (inactive)	30.6 µM (inactive)		
O=C(Nc1cc(Cl)c(Cl)cc1Cl)C(=O)C(C(=O)c1ccccc1)C1OC(=O)c2ccccc21 (stereo not given)		> 100 µM (inactive)	> 100 µM (inactive)	> 100 µM (inactive)	> 100 µM (inactive)	> 100 µM (inactive)	> 100 µM (inactive)		> 100 µM (inactive)	17.9 µM (inactive)	> 100 µM (inactive)	97.7 µM (inactive)	> 100 µM (inactive)	> 100 µM (inactive)	> 100 µM (inactive)	> 100 µM (inactive)	> 100 µM (inactive)	> 100 µM (inactive)		
CC(=O)OC1CC2C(C)(C)C(=O)C=C[C@]2(C)C2CCC3(C)C(=CCC3[C@H](CO)C[C@H](O)C(=O)C(C)(C)O)[C@]12C (stereo not given in full)	20.7 µM (inactive)	31 µM (inactive)	16.7 µM (inactive)	16.5 µM (inactive)	21.5 µM (inactive)	23.7 µM (inactive)	59.8 µM (inactive)	19 µM (inactive)	22.6 µM (inactive)	24.3 µM (inactive)	30.3 µM (inactive)	25.4 µM (inactive)	14.5 µM (inactive)		26.5 µM (inactive)	13.8 µM (inactive)	19.4 µM (inactive)	22.3 µM (inactive)		
COc1ccc(C=C(c2ccc(OCc3ccccc3)cc2)c2ccc(OCc3ccccc3)cc2)cc1	> 100 µM (inactive)	> 100 µM (inactive)	> 100 µM (inactive)	> 100 µM (inactive)	> 100 µM (inactive)	> 100 µM (inactive)	> 100 µM (inactive)	> 100 µM (inactive)		> 100 µM (inactive)		> 100 µM (inactive)	> 100 µM (inactive)	> 100 µM (inactive)	> 100 µM (inactive)	> 100 µM (inactive)	> 100 µM (inactive)	> 100 µM (inactive)		
N#CC1(N2CCCC2)CCC2(CC1)OCCO2	> 100 µM (inactive)	> 100 µM (inactive)	> 100 µM (inactive)	> 100 µM (inactive)	> 100 µM (inactive)	> 100 µM (inactive)	> 100 µM (inactive)	> 100 µM (inactive)	> 100 µM (inactive)	> 100 µM (inactive)	> 100 µM (inactive)	> 100 µM (inactive)	> 100 µM (inactive)	> 100 µM (inactive)	> 100 µM (inactive)	> 100 µM (inactive)	> 100 µM (inactive)	> 100 µM (inactive)		
N#Cc1nc(C#N)c(NC(=O)c2ccccc2C(=O)O)[nH]1	> 100 µM (inactive)	> 100 µM (inactive)	> 100 µM (inactive)		> 100 µM (inactive)	> 100 µM (inactive)		> 100 µM (inactive)	> 100 µM (inactive)	> 100 µM (inactive)	> 100 µM (inactive)		> 100 µM (inactive)	> 100 µM (inactive)	> 100 µM (inactive)	> 100 µM (inactive)	> 100 µM (inactive)	> 100 µM (inactive)	> 100 µM (inactive)	> 100 µM (inactive)
Cc1nc2c(=S)[nH]ncc2[nH]1	> 100 µM (inactive)	> 100 µM (inactive)	> 100 µM (inactive)		> 100 µM (inactive)	> 100 µM (inactive)	> 100 µM (inactive)	> 100 µM (inactive)	> 10 µM (inactive)	> 100 µM (inactive)	> 100 µM (inactive)		> 100 µM (inactive)	> 100 µM (inactive)	> 100 µM (inactive)	> 100 µM (inactive)	> 100 µM (inactive)	> 100 µM (inactive)		> 100 µM (inactive)
N#Cc1c(N2CCN(c3ccc([N+](=O)[O-])cc3)CC2)[n+]([O-])c2ccccc2[n+]1[O-]	> 100 µM (inactive)	> 100 µM (inactive)	78.2 µM (inactive)	> 100 µM (inactive)	17.4 µM (inactive)	0.0155 µM (active)	> 100 µM (inactive)	> 100 µM (inactive)	1.93 µM (inactive)	> 100 µM (inactive)	> 100 µM (inactive)	1.28 µM (inactive)	> 100 µM (inactive)	> 100 µM (inactive)	> 100 µM (inactive)	> 100 µM (inactive)	> 100 µM (inactive)	6.5 µM (inactive)		> 100 µM (inactive)
N#C[BH2-][n+]1cn(C2CC(O)C(COP(=O)(O)OC3CC(n4cnc5c(=O)[nH]c(N)nc54)OC3CO)O2)c2nc(N)[nH]c(=O)c21 (stereo not given)	> 100 µM (inactive)	> 100 µM (inactive)	> 100 µM (inactive)	97.3 µM (inactive)	22 µM (inactive)	> 100 µM (inactive)	> 100 µM (inactive)	> 100 µM (inactive)		> 100 µM (inactive)	> 100 µM (inactive)	1 µM (active)	> 100 µM (inactive)	84.7 µM (inactive)		> 100 µM (inactive)	> 100 µM (inactive)			> 100 µM (inactive)
O=C1c2ccccc2C(=O)C1C(c1ccc(F)cc1)C1C(=O)c2ccccc2C1=O	> 100 µM (inactive)	> 100 µM (inactive)	> 100 µM (inactive)	24.8 µM (inactive)		> 100 µM (inactive)	> 100 µM (inactive)	> 100 µM (inactive)	59.4 µM (inactive)	55 µM (inactive)	> 100 µM (inactive)	41.5 µM (inactive)	> 100 µM (inactive)	> 100 µM (inactive)	> 100 µM (inactive)	> 100 µM (inactive)	> 100 µM (inactive)	48.3 µM (inactive)		
CCCCc1ccc(Nc2nc(N)c3[nH]cnc3n2)cc1	22.4 µM (inactive)	30.5 µM (inactive)	24.4 µM (inactive)		12.1 µM (inactive)	12.7 µM (inactive)	24.5 µM (inactive)	17 µM (inactive)	0.925 µM (active)		17.1 µM (inactive)		26.5 µM (inactive)		16.4 µM (inactive)	13.8 µM (inactive)	22.5 µM (inactive)	25.4 µM (inactive)	17.7 µM (inactive)	21.5 µM (inactive)
CC(=O)OC1C2CCC3C(C)(O)C4CC(O)C(C)(C)C4(O)C(O)CC13CC2(C)O (stereo not given)	> 100 µM (inactive)	> 100 µM (inactive)			> 100 µM (inactive)	> 100 µM (inactive)	> 100 µM (inactive)	> 100 µM (inactive)		> 100 µM (inactive)	> 100 µM (inactive)	> 100 µM (inactive)	> 100 µM (inactive)	> 100 µM (inactive)	> 100 µM (inactive)	> 100 µM (inactive)		> 100 µM (inactive)	> 100 µM (inactive)	
CC(=O)OCC1OC(OC2CC3C(C)(C)C(O)CC[C@]3(C)C3CCC45CC4(CC[C@H]5C(C)CC(O)C4OC4(C)C)[C@]23C)C(O)C(O)C1O (stereo not given in full)	5.86 µM (inactive)	9.12 µM (inactive)	3.89 µM (inactive)	4.2 µM (inactive)	0.966 µM (active)	8.51 µM (inactive)	8.73 µM (inactive)	3.1 µM (inactive)	0.701 µM (active)	7.46 µM (inactive)	9.14 µM (inactive)	1.47 µM (inactive)	9.04 µM (inactive)	11.1 µM (inactive)	8.73 µM (inactive)	8.38 µM (inactive)	7.41 µM (inactive)	0.711 µM (active)		
CO[C@H]1C=C[C@]23c4cc5c(cc4CN(CC2O)[C@@H]3C1)OCO5 (stereo not given in full)	1.08 µM (active)	5.47 µM (inactive)	2.51 µM (inactive)		1.37 µM (inactive)	2.04 µM (inactive)	1.78 µM (inactive)	2.29 µM (inactive)	0.873 µM (active)	2.36 µM (inactive)	1.97 µM (inactive)		3.15 µM (inactive)		3.18 µM (inactive)	2.06 µM (inactive)	2.17 µM (inactive)	2.82 µM (inactive)	2.97 µM (inactive)	2.81 µM (inactive)
COc1cc2c(cc1O)C1CC(CC3CCCCN31)OC(=O)/C=C\c1ccc(O)c-2c1 (stereo not given)	26.5 µM (inactive)	58.3 µM (inactive)	35 µM (inactive)		24.7 µM (inactive)	25.9 µM (inactive)	27.3 µM (inactive)	16.8 µM (inactive)	20 µM (inactive)	10.2 µM (inactive)	27.9 µM (inactive)		19.1 µM (inactive)		26.4 µM (inactive)	20.5 µM (inactive)	28.3 µM (inactive)	27 µM (inactive)	18.3 µM (inactive)	21.9 µM (inactive)
CC(C)(C)OC(=O)C1/C(=C/CBr)CN1C(=O)OC(C)(C)C (stereo not given)	> 10 µM (inactive)	18.7 µM (inactive)			5.5 µM (inactive)	18.8 µM (inactive)	2.86 µM (inactive)	14.3 µM (inactive)	6.56 µM (inactive)		11.4 µM (inactive)		16.3 µM (inactive)	15.8 µM (inactive)	16.9 µM (inactive)	23.7 µM (inactive)	17.7 µM (inactive)	3.98 µM (inactive)	22 µM (inactive)	12.9 µM (inactive)
